The NIST ThermoML archive (doi:10.1016/j.jct.2017.06.001)

Assay: xn = mol fraction of the nth substance listed
Conditions: 100 kPa, Liquid; for speed of sound: Frequency=5 MHz, Pulse-echo method; for mass density: Vibrating tube method

OCCCCCO [1,5-pentanediol] + O
Conditions | mass density [kg/m3] | speed of sound [m/s]
303.15 K, x1 = 0.005 | 995.24 | –
303.15 K, x1 = 0.0101 | 995.18 | –
303.15 K, x1 = 0.0196 | 995.46 | –
303.15 K, x1 = 0.0251 | 995.87 | –
303.15 K, x1 = 0.0304 | 996.33 | –
303.15 K, x1 = 0.05 | 997.59 | –
303.15 K, x1 = 0.0769 | 998.6 | –
303.15 K, x1 = 0.1002 | 999.37 | –
303.15 K, x1 = 0.1172 | – | 1668.9
303.15 K, x1 = 0.1188 | – | 1669.4
303.15 K, x1 = 0.1225 | – | 1670.4
303.15 K, x1 = 0.1232 | – | 1670.5
303.15 K, x1 = 0.127 | – | 1671.5
303.15 K, x1 = 0.1286 | – | 1671.8
303.15 K, x1 = 0.1312 | – | 1672.4
303.15 K, x1 = 0.1344 | – | 1673
303.15 K, x1 = 0.135 | – | 1673.1
303.15 K, x1 = 0.1389 | – | 1673.8
303.15 K, x1 = 0.1394 | – | 1673.8
303.15 K, x1 = 0.1438 | 999.75 | –
303.15 K, x1 = 0.1443 | – | 1674.5
303.15 K, x1 = 0.1445 | – | 1674.6
303.15 K, x1 = 0.1496 | – | 1675.2
303.15 K, x1 = 0.1507 | – | 1675.3
303.15 K, x1 = 0.1548 | – | 1675.7
303.15 K, x1 = 0.1571 | – | 1675.9
303.15 K, x1 = 0.1598 | – | 1676.1
303.15 K, x1 = 0.163 | – | 1676.3
303.15 K, x1 = 0.1658 | – | 1676.5
303.15 K, x1 = 0.1708 | – | 1676.7
303.15 K, x1 = 0.1802 | – | 1676.9
303.15 K, x1 = 0.1845 | 999.44 | –
303.15 K, x1 = 0.1897 | – | 1677
303.15 K, x1 = 0.1979 | – | 1676.8
303.15 K, x1 = 0.2069 | – | 1676.6
303.15 K, x1 = 0.2148 | – | 1676.3
303.15 K, x1 = 0.2235 | – | 1675.9
303.15 K, x1 = 0.2319 | – | 1675.5
303.15 K, x1 = 0.2409 | – | 1674.9
303.15 K, x1 = 0.2503 | 998.42 | –
303.15 K, x1 = 0.2504 | – | 1674.3
303.15 K, x1 = 0.2626 | – | 1673.4
303.15 K, x1 = 0.2732 | – | 1672.6
303.15 K, x1 = 0.2834 | – | 1671.8
303.15 K, x1 = 0.2953 | – | 1670.8
303.15 K, x1 = 0.3 | 997.34 | –
303.15 K, x1 = 0.3083 | – | 1669.6
303.15 K, x1 = 0.3214 | – | 1668.4
303.15 K, x1 = 0.3343 | 996.61 | –
303.15 K, x1 = 0.3389 | – | 1666.8
303.15 K, x1 = 0.3516 | – | 1665.5
303.15 K, x1 = 0.3648 | – | 1664.2
303.15 K, x1 = 0.3773 | – | 1662.8
303.15 K, x1 = 0.3937 | – | 1661.1
303.15 K, x1 = 0.4071 | – | 1659.6
303.15 K, x1 = 0.4171 | 994.93 | –
303.15 K, x1 = 0.4199 | – | 1658.1
303.15 K, x1 = 0.4346 | – | 1656.3
303.15 K, x1 = 0.447 | – | 1654.8
303.15 K, x1 = 0.454 | 994.03 | –
303.15 K, x1 = 0.4637 | – | 1652.8
303.15 K, x1 = 0.4812 | – | 1650.5
303.15 K, x1 = 0.4955 | – | 1648.6
303.15 K, x1 = 0.5003 | 993 | –
303.15 K, x1 = 0.5124 | – | 1646.4
303.15 K, x1 = 0.5315 | – | 1643.8
303.15 K, x1 = 0.5362 | 992.2 | –
303.15 K, x1 = 0.5497 | – | 1641.2
303.15 K, x1 = 0.5687 | – | 1638.5
303.15 K, x1 = 0.5883 | – | 1635.7
303.15 K, x1 = 0.6098 | – | 1632.7
303.15 K, x1 = 0.6177 | 990.7 | –
303.15 K, x1 = 0.63 | – | 1629.8
303.15 K, x1 = 0.6445 | – | 1627.7
303.15 K, x1 = 0.6478 | 990.1 | –
303.15 K, x1 = 0.6622 | – | 1625.2
303.15 K, x1 = 0.6847 | – | 1622
303.15 K, x1 = 0.7025 | 989.2 | –
303.15 K, x1 = 0.7039 | – | 1619.3
303.15 K, x1 = 0.7252 | – | 1616.4
303.15 K, x1 = 0.7448 | – | 1613.7
303.15 K, x1 = 0.7504 | 988.4 | –
303.15 K, x1 = 0.7674 | – | 1610.7
303.15 K, x1 = 0.7881 | – | 1608.1
303.15 K, x1 = 0.7927 | 987.6 | –
303.15 K, x1 = 0.8098 | – | 1605.3
303.15 K, x1 = 0.8318 | – | 1602.6
303.15 K, x1 = 0.8478 | – | 1600.6
303.15 K, x1 = 0.8605 | 986.4 | –
303.15 K, x1 = 0.8678 | – | 1598.2
303.15 K, x1 = 0.8839 | – | 1596.3
303.15 K, x1 = 0.9004 | 985.7 | –
303.15 K, x1 = 0.9005 | – | 1594.4
303.15 K, x1 = 0.9185 | – | 1592.2
303.15 K, x1 = 0.9359 | – | 1590.2
303.15 K, x1 = 0.9494 | – | 1588.6
303.15 K, x1 = 0.9496 | 984.6 | –
303.15 K, x1 = 0.9623 | – | 1587.1
303.15 K, x1 = 0.9723 | – | 1585.9
303.15 K, x1 = 0.9822 | – | 1584.7
303.15 K, x1 = 0.9892 | – | 1583.9
303.15 K, x1 = 0.9947 | – | 1583.2
303.15 K, x1 = 0.9972 | – | 1582.9
303.15 K, x1 = 1 | 983.6 | 1582.5
308.15 K, x1 = 0.0001 | – | 1519.6
308.15 K, x1 = 0.0003 | – | 1520.1
308.15 K, x1 = 0.0005 | – | 1520.7
308.15 K, x1 = 0.0007 | – | 1521.5
308.15 K, x1 = 0.001 | – | 1522.4
308.15 K, x1 = 0.0014 | – | 1523.4
308.15 K, x1 = 0.0018 | – | 1524.7
308.15 K, x1 = 0.0023 | – | 1526.2
308.15 K, x1 = 0.0028 | – | 1527.9
308.15 K, x1 = 0.0034 | – | 1529.7
308.15 K, x1 = 0.004 | – | 1531.4
308.15 K, x1 = 0.0047 | – | 1533.5
308.15 K, x1 = 0.0055 | – | 1535.7
308.15 K, x1 = 0.0064 | – | 1538.1
308.15 K, x1 = 0.0073 | – | 1540.8
308.15 K, x1 = 0.0083 | – | 1543.6
308.15 K, x1 = 0.0094 | – | 1546.5
308.15 K, x1 = 0.0105 | – | 1549.3
308.15 K, x1 = 0.0116 | – | 1552.2
308.15 K, x1 = 0.0129 | – | 1555.4
308.15 K, x1 = 0.0141 | – | 1558.3
308.15 K, x1 = 0.0154 | – | 1561.5
308.15 K, x1 = 0.0167 | – | 1564.5
308.15 K, x1 = 0.0181 | – | 1567.6
308.15 K, x1 = 0.0195 | – | 1570.7
308.15 K, x1 = 0.0211 | – | 1574.1
308.15 K, x1 = 0.0225 | – | 1577
308.15 K, x1 = 0.0238 | – | 1579.8
308.15 K, x1 = 0.0252 | – | 1582.6
308.15 K, x1 = 0.0268 | – | 1585.5
308.15 K, x1 = 0.0283 | – | 1588.5
308.15 K, x1 = 0.0298 | – | 1591.2
308.15 K, x1 = 0.0316 | – | 1594.3
308.15 K, x1 = 0.0336 | – | 1597.7
308.15 K, x1 = 0.0351 | – | 1600.2
308.15 K, x1 = 0.0367 | – | 1602.6
308.15 K, x1 = 0.0384 | – | 1605.2
308.15 K, x1 = 0.0403 | – | 1608.1
308.15 K, x1 = 0.0417 | – | 1610
308.15 K, x1 = 0.0436 | – | 1612.7
308.15 K, x1 = 0.0459 | – | 1615.8
308.15 K, x1 = 0.0481 | – | 1618.5
308.15 K, x1 = 0.0505 | – | 1621.5
308.15 K, x1 = 0.0528 | – | 1624
308.15 K, x1 = 0.0551 | – | 1626.6
308.15 K, x1 = 0.0574 | – | 1629
308.15 K, x1 = 0.0594 | – | 1631
308.15 K, x1 = 0.062 | – | 1633.4
308.15 K, x1 = 0.0648 | – | 1635.9
308.15 K, x1 = 0.0671 | – | 1637.9
308.15 K, x1 = 0.0706 | – | 1640.7
308.15 K, x1 = 0.073 | – | 1642.4
308.15 K, x1 = 0.0758 | – | 1644.4
